The values that follow come from BindingDB's records for doi:10.1074/jbc.M113.532804 (University of Wuerzburg, 2014).

Experiment [1] deals with T1, Enoyl-[acyl-carrier-protein] reductase [NADPH] FabI (Staphylococcus aureus (strain NCTC 8325 / PS 47), UniProt Q2FZQ3).
T1 sequence (Q2FZQ3 whole entry): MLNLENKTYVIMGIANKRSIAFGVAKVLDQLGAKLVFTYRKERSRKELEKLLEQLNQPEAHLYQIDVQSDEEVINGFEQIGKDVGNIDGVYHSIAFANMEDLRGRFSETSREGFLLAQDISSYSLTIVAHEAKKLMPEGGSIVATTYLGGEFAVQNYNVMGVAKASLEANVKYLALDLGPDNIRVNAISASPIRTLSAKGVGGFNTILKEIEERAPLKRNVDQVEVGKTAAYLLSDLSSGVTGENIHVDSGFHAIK
The experiment in a line: Inhibition Kinetics Assay. The settings on record: pH 7.5. Here is the method:
(§1) Kinetics were performed on a Cary 100 spectrophotometer (Varian) at 20 °C.

Experiment [2] deals with T2, Enoyl-[acyl-carrier-protein] reductase [NADH] FabI (Escherichia coli (strain K12), UniProt P0AEK4).
T2 sequence (P0AEK4 whole entry): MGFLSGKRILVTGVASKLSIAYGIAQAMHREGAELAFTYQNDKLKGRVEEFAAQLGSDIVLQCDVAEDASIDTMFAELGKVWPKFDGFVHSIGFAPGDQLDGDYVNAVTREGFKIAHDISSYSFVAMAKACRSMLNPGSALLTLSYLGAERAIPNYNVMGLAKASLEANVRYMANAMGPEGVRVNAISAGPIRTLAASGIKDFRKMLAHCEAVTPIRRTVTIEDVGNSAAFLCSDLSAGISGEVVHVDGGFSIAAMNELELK
As to the kind of experiment: Inhibition Kinetics Assay. The settings on record: pH 7.5. Here is the method: as §1

Structures are written as SMILES.

For `CCCCCCc1ccc(Oc2ccccc2)c(=O)[nH]1` [PT191], the Ki (in general, the dissociation constant of the complex between target and ligand, obtained from inhibition or displacement) in experiment [1] came out at 196 nM.
With `CCCCCCc1cc(=O)c(Cc2ccccc2C#N)cn1C` [PT159], the Ki in experiment [1] was found to be 11 nM.
Consider `CCCCCCc1ccn(Cc2ccccc2C)c(=O)c1` [PT171], for which the Ki is 11.9 nM in experiment [1] and 95.7 nM in experiment [2].
Turning to `CCCCCCc1ccn(Cc2ccccc2)c(=O)c1` [PT179], the Ki in experiment [1] was 19 nM.
Take `CCCCCCc1ccn(Cc2cccc(N)c2C)c(=O)c1` [PT173]: the Ki in experiment [1] was determined as 2 nM; in experiment [2], 203 nM.
For `CCCCCCc1cc(=O)c(Oc2ccccc2C)cn1C` [PT166] the same measures were 2.7 nM and 7 nM.
Turning to `CCCCCCc1ccn(Cc2ccccc2Cl)c(=O)c1` [PT172], in experiment [1], the affinity corresponds to a Ki of 11 nM.
Still for that read-out and setting: with `CCCCCc1ccn(Cc2ccccc2C#N)c(=O)c1` [PT420] the figure was 29.6 nM; with `Cc1c(N)cccc1Cn1ccc(OCCc2cccs2)cc1=O` [CG400549], 1.3 nM.
The same measure, in the same setting: with `Cc1ccn(Cc2ccccc2Cl)c(=O)c1` [PT170] the figure was 229 nM.
